Experimental data published in patent US10287255B2, “Compounds as histone deacetylase 6 inhibitors and pharmaceutical compositions comprising the same” (CHONG KUN DANG PHARMACEUTICAL CORP., priority 2014, dated 2019).

Tests used:
[1] = target: T1, human recombinant HDAC6 (Homo sapiens, UniProt Q9UBN7); assay: HDAC6 enzyme activity inhibition assay (in vitro, fluorimetric); type: biochemical; details: for HDAC6 selectivity (fold): HDAC6 selectivity over HDAC1; for IC50: human recombinant HDAC6, fluorimetric kit, same protocol as HDAC1
T1 construct: purchased Calbiochem 382180
T1 sequence (Q9UBN7 1-1215): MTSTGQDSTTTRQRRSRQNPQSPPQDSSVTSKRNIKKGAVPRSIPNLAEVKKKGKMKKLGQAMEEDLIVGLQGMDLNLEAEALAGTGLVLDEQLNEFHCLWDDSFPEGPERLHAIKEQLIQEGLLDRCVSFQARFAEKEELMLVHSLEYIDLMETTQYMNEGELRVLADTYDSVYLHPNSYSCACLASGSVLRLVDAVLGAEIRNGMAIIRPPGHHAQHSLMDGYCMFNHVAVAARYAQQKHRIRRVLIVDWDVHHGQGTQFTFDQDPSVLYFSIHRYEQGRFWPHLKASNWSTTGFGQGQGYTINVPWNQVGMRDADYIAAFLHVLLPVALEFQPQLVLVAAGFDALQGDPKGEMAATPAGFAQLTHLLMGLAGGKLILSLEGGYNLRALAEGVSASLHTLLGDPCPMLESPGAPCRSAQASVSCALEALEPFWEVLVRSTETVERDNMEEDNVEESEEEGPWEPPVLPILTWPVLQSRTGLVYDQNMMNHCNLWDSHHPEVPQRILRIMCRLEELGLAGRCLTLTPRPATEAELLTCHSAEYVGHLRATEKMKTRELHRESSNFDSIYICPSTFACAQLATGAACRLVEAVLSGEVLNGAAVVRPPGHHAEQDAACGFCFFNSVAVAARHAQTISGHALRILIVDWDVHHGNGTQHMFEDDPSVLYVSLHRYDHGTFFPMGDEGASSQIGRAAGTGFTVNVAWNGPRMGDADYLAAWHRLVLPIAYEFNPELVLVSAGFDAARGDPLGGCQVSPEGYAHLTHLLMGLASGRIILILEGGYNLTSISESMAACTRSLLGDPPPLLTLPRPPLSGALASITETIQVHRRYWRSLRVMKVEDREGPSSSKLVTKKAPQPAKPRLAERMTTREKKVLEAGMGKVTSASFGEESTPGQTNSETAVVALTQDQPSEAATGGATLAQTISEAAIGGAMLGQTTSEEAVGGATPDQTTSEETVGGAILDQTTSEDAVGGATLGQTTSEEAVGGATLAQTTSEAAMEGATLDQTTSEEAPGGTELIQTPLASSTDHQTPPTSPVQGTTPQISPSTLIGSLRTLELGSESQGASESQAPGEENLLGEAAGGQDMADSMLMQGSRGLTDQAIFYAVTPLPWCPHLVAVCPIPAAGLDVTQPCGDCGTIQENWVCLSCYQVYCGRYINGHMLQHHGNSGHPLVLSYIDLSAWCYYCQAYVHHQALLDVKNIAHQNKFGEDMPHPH
Summary of the method: (§1)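 Human recombinant enzyme (0.3 μg for HDAC1) reacted with 10 μM Fluor de Lys-SIRT1 substrate and 5-fold compound dilutions at 30 °C for 60 min, then developer for 30 min. Fluorescence read at Ex 360/Em 460; IC50 calculated. HDAC6 run by the same protocol.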

[2] = target: T2, human recombinant HDAC1 (Homo sapiens, UniProt Q13547); assay: HDAC1 enzyme activity inhibition assay (in vitro, fluorimetric); type: biochemical; details: human recombinant HDAC1, fluorimetric kit, 30° C. 60 minutes
T2 construct: purchased Enzo Life Science BML-SE456
T2 sequence (Q13547 whole entry): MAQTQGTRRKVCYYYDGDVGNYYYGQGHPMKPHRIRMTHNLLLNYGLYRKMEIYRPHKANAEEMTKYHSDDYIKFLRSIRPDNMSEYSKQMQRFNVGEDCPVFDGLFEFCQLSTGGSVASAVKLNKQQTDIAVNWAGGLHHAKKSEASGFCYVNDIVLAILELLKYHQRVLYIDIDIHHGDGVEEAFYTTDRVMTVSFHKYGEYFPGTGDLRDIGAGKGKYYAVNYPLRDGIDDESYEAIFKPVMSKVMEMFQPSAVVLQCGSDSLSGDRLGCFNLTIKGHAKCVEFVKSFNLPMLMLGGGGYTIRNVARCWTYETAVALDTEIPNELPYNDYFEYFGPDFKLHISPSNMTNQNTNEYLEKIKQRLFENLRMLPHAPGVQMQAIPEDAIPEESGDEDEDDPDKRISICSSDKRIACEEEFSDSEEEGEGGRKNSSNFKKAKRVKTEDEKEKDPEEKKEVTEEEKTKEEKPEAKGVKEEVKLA
Summary of the method: as §1

SMILES | HDAC6 selectivity (fold) [1] [fold] | IC50 [1] [nM] | IC50 [2] [nM]
C[C@@H]1CN(CC(C)(C)F)C[C@H](C)N1Cc1ccc(C(=O)NO)cc1 [Compound 193, 4-(((2S,6R)-4-(2-fluoro-2-methylpropyl)-2,6-dimethylpiperazin-1-yl)methyl)-N-hydroxybenzamide] | 60 | 271 | 16300
C[C@@H]1CN(Cc2ccc(C(=O)NO)cc2)C[C@H](C)N1Cc1cccc(CN2CCN(Cc3ccccc3)CC2)c1 [Compound 385, 4-(((3R,5S)-4-(3-((4-benzylpiperazin-1-yl)methyl)benzyl)-3,5-dimethylpiperazin-1-yl)methyl)-N-hydroxybenzamide] | >53 | 189 | > 10000
Cc1cccc(NC(=S)N2C[C@@H](C)N(Cc3ccc(C(=O)NO)cc3)[C@@H](C)C2)c1 [Compound 189, 4-(((2S,6R)-2,6-dimethyl-4-(m-tolylcarbamothioyl)piperazin-1-yl)methyl)-N-hydroxybenzamide] | 10 | 303 | 3000
CC(=O)N1CC=C(c2ccccc2CN2[C@H](C)CN(Cc3ccc(C(=O)NO)cc3)C[C@@H]2C)CC1 [Compound 482, 4-(((3R,5S)-4-(2-(1-acetyl-1,2,3,6-tetrahydropyridin-4-yl)benzyl)-3,5-dimethylpiperazin-1-yl)methyl)-N-hydroxybenzamide] | 121 | 103 | 12500
C[C@@H]1CN(Cc2cc(F)c(F)cc2F)C[C@H](C)N1Cc1ccc(C(=O)NO)cc1 [Compound 215, 4-(((2S,6R)-2,6-dimethyl-4-(2,4,5-trifluorobenzyl)piperazin-1-yl)methyl)-N-hydroxybenzamide] | 2 | 523 | > 10000
CCN(CC)Cc1cccc(CN2C[C@@H](C)N(Cc3ccc(C(=O)NO)cc3)[C@@H](C)C2)c1 [Compound 478, 4-(((2S,6R)-4-(3-((diethylamino)methyl)benzyl)-2,6-dimethylpiperazin-1-yl)methyl)-N-hydroxybenzamide] | 10 | 640 | 6570
CC(C)N1C[C@@H](C)N(Cc2ccc(C(=O)NO)cc2)[C@@H](C)C1 [Compound 273, N-hydroxy-4-(((2S,6R)-4-isopropyl-2,6-dimethylpiperazin-1-yl)methyl)benzamide] | 31 | 441 | 13700
C[C@@H]1CN(Cc2ccc(C3=CCC(C)(C)CC3)cc2)C[C@H](C)N1Cc1ccc(C(=O)NO)cc1 [Compound 400, 4-(((2S,6R)-4-((4′,4′-dimethyl-2′,3′,4′,5′-tetrahydro-[1,1′-biphenyl]-4-yl)methyl)-2,6-dimethylpiperazin-1-yl)methyl)-N-hydroxybenzamide] | 4 | 2820 | 11300
C[C@@H]1CN(Cc2ccc(C(=O)NO)cc2)C[C@H](C)N1C(=O)c1cccc(-c2cccnc2)c1 [Compound 246, 4-(((3R,5S)-3,5-dimethyl-4-(3-(pyridin-3-yl)benzoyl)piperazin-1-yl)methyl)-N-hydroxybenzamide] | 26 | 129 | 3400
C[C@@H]1CN(C(=O)N(C)c2ccccc2)C[C@H](C)N1Cc1ccc(C(=O)NO)cc1 [Compound 196, (3R,5S)-4-(4-(hydroxycarbamoyl)benzyl)-N,3,5-trimethyl-N-phenylpiperazine-1-carboxamide] | 97 | 148 | 14400
C[C@@H]1CN(Cc2ccc(C(=O)NO)cc2)C[C@H](C)N1S(=O)(=O)c1ccccc1 [Compound 100, 4-(((3R,5S)-3,5-dimethyl-4-(phenylsulfonyl)piperazin-1-yl)methyl)-N-hydroxybenzamide] | >105 | 95 | > 10000
C[C@@H]1CN(Cc2ccc(-c3ccco3)cc2)C[C@H](C)N1Cc1ccc(/C=C/C(=O)NO)cc1 [Compound 477, (E)-3-(4-(((2S,6R)-4-(4-(furan-2-yl)benzyl)-2,6-dimethylpiperazin-1-yl)methyl)phenyl)-N-hydroxyacrylamide] | 11 | 253 | 2700
C[C@@H]1CN(Cc2ccc(C(=O)NO)c(O)c2)C[C@H](C)N1Cc1ccccc1 [Compound 652, 4-(((3R,5S)-4-benzyl-3,5-dimethylpiperazin-1-yl)methyl)-N,2-dihydroxybenzamide] | >11 | 880 | > 10000

Compounds with a lower IC50 [1], results first:

HDAC6 selectivity (fold) [1] [fold] | IC50 [1] [nM] | IC50 [2] [nM] | SMILES
1525 | 4 | 6100 | C[C@@H]1CN(Cc2ccc(C(=O)NO)cc2)C[C@H](C)N1C(=O)c1cccs1 [Compound 126, 4-(((3R,5S)-3,5-dimethyl-4-(thiophene-2-carbonyl)piperazin-1-yl)methyl)-N-hydroxybenzamide]
1720 | 10 | 17200 | C[C@@H]1CN(Cc2ccc(C(=O)NO)cc2F)C[C@H](C)N1Cc1ccccc1 [Compound 813, 4-(((3R,5S)-4-benzyl-3,5-dimethylpiperazin-1-yl)methyl)-3-fluoro-N-hydroxybenzamide]
67 | 75 | 5100 | C[C@@H]1CN(S(=O)(=O)c2ccc(Cl)cc2)C[C@H](C)N1Cc1ccc(C(=O)NO)cc1 [Compound 109, 4-(((2S,6R)-4-((4-chlorophenyl)sulfonyl)-2,6-dimethylpiperazin-1-yl)methyl)-N-hydroxybenzamide]
3 | 55 | 200 | C[C@@H]1CN(Cc2ccc(/C=C/C(=O)NO)cc2)C[C@H](C)N1Cc1cccc(CN2CCOCC2)c1 [Compound 472, (E)-3-(4-(((3R,5S)-3,5-dimethyl-4-(3-(morpholinomethyl)benzyl)piperazin-1-yl)methyl)phenyl)-N-hydroxyacrylamide]
>769 | 13 | > 10000 | C[C@@H]1CN(Cc2ccc(C(=O)NO)cc2)C[C@H](C)N1Cc1ccc(CN2CCN(Cc3ccccc3)CC2)cc1 [Compound 413, 4-(((3R,5S)-4-(4-((4-benzylpiperazin-1-yl)methyl)benzyl)-3,5-dimethylpiperazin-1-yl)methyl)-N-hydroxybenzamide]
65 | 5 | 300 | C[C@@H]1CN(C(=O)Nc2cccc(-n3cccc3)c2)C[C@H](C)N1Cc1ccc(C(=O)NO)cc1 [Compound 186, (3R,5S)-N-(3-(1 H-pyrrol-1-yl)phenyl)-4-(4-(hydroxycarbamoyl)benzyl)-3,5-dimethylpiperazine-1-carboxamide]
303 | 82 | 24800 | C[C@@H]1CN(Cc2ccc(C(=O)NO)cn2)C[C@H](C)N1Cc1ccccc1 [Compound 194, 6-(((3R,5S)-4-benzyl-3,5-dimethylpiperazin-1-yl)methyl)-N-hydroxynicotinamide]
27 | 60 | 1600 | C[C@@H]1CN(S(=O)(=O)c2ccccc2)C[C@H](C)N1Cc1ccc(C(=O)NO)cc1 [Compound 105, 4-(((2S,6R)-2,6-dimethyl-4-(phenylsulfonyl)piperazin-1-yl)methyl)-N-hydroxybenzamide]
>2000 | 5 | > 10000 | C[C@@H]1CN(Cc2ccc(C(=O)NO)cc2)C[C@H](C)N1Cc1cocn1 [Compound 354, 4-(((3R,5S)-3,5-dimethyl-4-(oxazol-4-ylmethyl)piperazin-1-yl)methyl)-N-hydroxybenzamide]
>154 | 65 | > 10000 | C[C@@H]1CN(Cc2ccc(C(=O)NO)cc2)C[C@H](C)N1Cc1ccccc1F [Compound 211, 4-(((3R,5S)-4-(2-fluorobenzyl)-3,5-dimethylpiperazin-1-yl)methyl)-N-hydroxybenzamide]
